Tested on: antibodies against Δ^9-THC
Test: Cross-reactivity by displacement of cannabinol-based tracer from immobilized antibody (continuous flow)
Type: binding
Conditions: for MAX FI (mV): sample with 25 ng/mL of unlabeled substance, cannabinol-based tracer (FIG. 10) displaced, 0 ng/mL baseline 422; for percent cross-reactivity: 25 ng/mL
Protocol: The lower binding affinity of an antibody to a particular tracer may be measured by the percent cross-reactivity of the antibody to the tracer as compared to the analyte in a sample. For example, immobilized antibodies against Δ^9-THC were bound with the cannabinol-based tracer (shown in FIG. 10) similar to the methods as described in Example VII. Different samples containing 25 ng/mL of Δ^9-THC (unlabeled), Δ^8-THC (unlabeled), unlabeled 9-carboxy-Δ^9-THC (THCA), cannabidiol (unlabeled), or unlabeled cannabinol were flowed through different columns having the antibody-tracer complex to determine the amount of cross-reactivity. The amount of tracer displaced was then compared between the different samples.
Using Δ^9-THC as the standard (i.e., Δ^9-THC set at 100% cross-reactivity) (1602/1602)), 9-carboxy-Δ^9-THC has a percent cross-reactivity of about 540% (8700/1602), and cannabinol has a percent cross-reactivity of about 79% (1266/1602). If 9-carboxy-Δ^9-THC were used as the standard (i.e., 9-carboxy-Δ^9-THC set at 100% cross-reactivity (8700/8700)), then the percent cross-reactivity for cannabinol would be about 14.5% (1266/8700). If Δ^8-THC were used as a standard (i.e., A ^8-THC set at 100% cross-reactivity (1488/1488)), then the present cross-reactivity for cannabinol would be about 85% (1266/1488).

C=C(C)[C@@H]1CCC(C)=C[C@H]1c1c(O)cc(CCCCC)cc1O [Cannabidiol, cannabidiol]
MAX FI (mV): 624 mV

CCCCCc1cc(O)c2c(c1)OC(C)(C)c1ccc(C)cc1-2 [Cannabinol, 6,6,9-trimethyl-3-pentyl-6H-dibenzo[b,d]pyran-1-ol]
percent cross-reactivity (9-carboxy-Δ^9-THC as the standard (100%)): about 14.5% | MAX FI (mV): 1266 mV | percent cross-reactivity (Δ^8-THC as the standard (100%)): about 85% | percent cross-reactivity (Δ^9-THC as the standard (100%)): about 79%

CCCCCc1cc(O)c2c(c1)OC(C)(C)[C@@H]1CCC(C(=O)O)=C[C@@H]21 [THCA, 9-carboxy-Δ^9-THC]
MAX FI (mV): 8700 mV | percent cross-reactivity (Δ^9-THC as the standard (100%)): about 540%

CCCCCc1cc(O)c2c(c1)OC(C)(C)[C@@H]1CC=C(C)C[C@@H]21 [Δ^8-THC]
MAX FI (mV): 1488 mV

CCCCCc1cc(O)c2c(c1)OC(C)(C)[C@@H]1CCC(C)=C[C@@H]21 [Δ^9-THC, Δ^9-tetrahydrocannabinol]
MAX FI (mV): 1602 mV

— patent US6686209B2, “Reagents for detecting cannabinoids” (Lifepoint, Inc., priority 2001, dated 2004)
